ChEMBL document CHEMBL1201862, “PubChem BioAssay data set” (2004)
Values belong to the molecule of their own block, whether it stands above or below them. Active and inactive are the calls of the source.

Assays:
HeLa = assay: ATP-based viability loss in HeLa cells – cell-based, CellTiter-Glo luminescence, cherry-pick samples, cytotoxicity control for MITF activator project, dose response (AID 540259); type: functional; conditions: Homo sapiens
[1] = molecular target: Voltage-gated inwardly rectifying potassium channel KCNH2 (Homo sapiens, UniProt Q12809); conditions: Potency;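 further: confirmatory quantitative high-throughput screen measuring inhibition of hERG channel activity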
Sequence of Voltage-gated inwardly rectifying potassium channel KCNH2 (Q12809 whole entry): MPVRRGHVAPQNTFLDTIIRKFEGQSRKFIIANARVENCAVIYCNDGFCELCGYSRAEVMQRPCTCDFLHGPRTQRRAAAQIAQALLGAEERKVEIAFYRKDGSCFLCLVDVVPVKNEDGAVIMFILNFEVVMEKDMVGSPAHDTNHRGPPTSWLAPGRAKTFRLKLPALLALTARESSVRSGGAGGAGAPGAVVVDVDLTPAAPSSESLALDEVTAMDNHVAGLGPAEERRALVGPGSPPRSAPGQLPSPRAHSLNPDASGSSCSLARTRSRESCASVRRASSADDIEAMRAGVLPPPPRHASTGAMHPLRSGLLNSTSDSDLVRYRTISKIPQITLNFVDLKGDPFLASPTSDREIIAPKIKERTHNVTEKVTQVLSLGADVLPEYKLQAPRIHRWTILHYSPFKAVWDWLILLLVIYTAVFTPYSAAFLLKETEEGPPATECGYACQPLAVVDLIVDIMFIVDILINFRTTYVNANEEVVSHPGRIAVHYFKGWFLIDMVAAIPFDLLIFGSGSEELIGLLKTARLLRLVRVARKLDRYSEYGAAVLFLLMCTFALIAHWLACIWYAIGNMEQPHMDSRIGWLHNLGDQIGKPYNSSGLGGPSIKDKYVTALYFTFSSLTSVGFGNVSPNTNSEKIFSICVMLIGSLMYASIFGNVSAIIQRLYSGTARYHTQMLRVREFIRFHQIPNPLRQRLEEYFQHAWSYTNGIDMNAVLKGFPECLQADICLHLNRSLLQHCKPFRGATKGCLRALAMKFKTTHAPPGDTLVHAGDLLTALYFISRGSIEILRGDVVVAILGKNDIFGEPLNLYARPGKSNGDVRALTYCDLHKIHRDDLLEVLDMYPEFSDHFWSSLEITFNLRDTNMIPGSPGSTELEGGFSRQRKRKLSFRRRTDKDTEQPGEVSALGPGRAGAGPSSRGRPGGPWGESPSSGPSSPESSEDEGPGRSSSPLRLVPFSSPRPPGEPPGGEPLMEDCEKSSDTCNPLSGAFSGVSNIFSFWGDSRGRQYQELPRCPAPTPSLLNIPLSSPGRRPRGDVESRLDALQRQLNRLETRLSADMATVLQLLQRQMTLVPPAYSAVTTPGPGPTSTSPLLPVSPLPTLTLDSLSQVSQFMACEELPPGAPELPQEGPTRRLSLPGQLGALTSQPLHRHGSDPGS

Estrogen receptor = molecular target: T1, Estrogen receptor (Homo sapiens, UniProt P03372);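 further: potency for inhibiting coactivator peptide recruitment to the receptor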
T1 sequence (P03372 whole entry): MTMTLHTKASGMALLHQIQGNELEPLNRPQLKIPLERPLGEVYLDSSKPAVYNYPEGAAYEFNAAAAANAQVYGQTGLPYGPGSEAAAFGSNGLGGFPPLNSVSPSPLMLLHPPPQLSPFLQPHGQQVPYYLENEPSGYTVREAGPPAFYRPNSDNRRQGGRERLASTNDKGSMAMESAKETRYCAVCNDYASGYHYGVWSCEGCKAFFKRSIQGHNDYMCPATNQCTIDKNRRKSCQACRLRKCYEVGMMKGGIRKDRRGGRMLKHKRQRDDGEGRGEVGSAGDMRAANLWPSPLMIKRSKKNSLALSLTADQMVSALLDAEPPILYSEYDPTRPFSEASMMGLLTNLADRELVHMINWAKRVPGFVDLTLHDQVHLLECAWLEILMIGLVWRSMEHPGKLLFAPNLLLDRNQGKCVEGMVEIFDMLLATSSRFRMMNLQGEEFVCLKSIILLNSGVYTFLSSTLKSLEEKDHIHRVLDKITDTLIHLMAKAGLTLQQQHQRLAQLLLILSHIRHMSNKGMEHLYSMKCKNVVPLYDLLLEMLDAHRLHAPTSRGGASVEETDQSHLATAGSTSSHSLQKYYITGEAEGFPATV

[2] = viability of PTEN-deleted HCT116 cells – cell-based, HCT116 PTEN knockout, dose response (AID 1047); type: functional;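 further: HCT116 colon tumor cells with PTEN knocked out; cells exposed to compound for 60 hours before readout; potency for loss of cell viability measured by luminescence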
[3] = viability of HCT116 lacking mutant beta-catenin – cell-based, human colon tumor, dose response (AID 1045); type: functional;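 further: HCT116 colon tumor cells with beta catenin knocked out; cells exposed to compound for 60 hours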
Fatty acid synthase [4] = molecular target: T2, Fatty acid synthase (Homo sapiens, UniProt P49327); assay: inhibition of human FAS-TE enzyme activity – biochemical, endpoint fluorescence intensity, uHTS hits, dose response (AID 624327); type: functional;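 further: fluorescence from hydrolysis of an O-methyl fluorescein acyl ester substrate by the enzyme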
T2 sequence (P49327 whole entry): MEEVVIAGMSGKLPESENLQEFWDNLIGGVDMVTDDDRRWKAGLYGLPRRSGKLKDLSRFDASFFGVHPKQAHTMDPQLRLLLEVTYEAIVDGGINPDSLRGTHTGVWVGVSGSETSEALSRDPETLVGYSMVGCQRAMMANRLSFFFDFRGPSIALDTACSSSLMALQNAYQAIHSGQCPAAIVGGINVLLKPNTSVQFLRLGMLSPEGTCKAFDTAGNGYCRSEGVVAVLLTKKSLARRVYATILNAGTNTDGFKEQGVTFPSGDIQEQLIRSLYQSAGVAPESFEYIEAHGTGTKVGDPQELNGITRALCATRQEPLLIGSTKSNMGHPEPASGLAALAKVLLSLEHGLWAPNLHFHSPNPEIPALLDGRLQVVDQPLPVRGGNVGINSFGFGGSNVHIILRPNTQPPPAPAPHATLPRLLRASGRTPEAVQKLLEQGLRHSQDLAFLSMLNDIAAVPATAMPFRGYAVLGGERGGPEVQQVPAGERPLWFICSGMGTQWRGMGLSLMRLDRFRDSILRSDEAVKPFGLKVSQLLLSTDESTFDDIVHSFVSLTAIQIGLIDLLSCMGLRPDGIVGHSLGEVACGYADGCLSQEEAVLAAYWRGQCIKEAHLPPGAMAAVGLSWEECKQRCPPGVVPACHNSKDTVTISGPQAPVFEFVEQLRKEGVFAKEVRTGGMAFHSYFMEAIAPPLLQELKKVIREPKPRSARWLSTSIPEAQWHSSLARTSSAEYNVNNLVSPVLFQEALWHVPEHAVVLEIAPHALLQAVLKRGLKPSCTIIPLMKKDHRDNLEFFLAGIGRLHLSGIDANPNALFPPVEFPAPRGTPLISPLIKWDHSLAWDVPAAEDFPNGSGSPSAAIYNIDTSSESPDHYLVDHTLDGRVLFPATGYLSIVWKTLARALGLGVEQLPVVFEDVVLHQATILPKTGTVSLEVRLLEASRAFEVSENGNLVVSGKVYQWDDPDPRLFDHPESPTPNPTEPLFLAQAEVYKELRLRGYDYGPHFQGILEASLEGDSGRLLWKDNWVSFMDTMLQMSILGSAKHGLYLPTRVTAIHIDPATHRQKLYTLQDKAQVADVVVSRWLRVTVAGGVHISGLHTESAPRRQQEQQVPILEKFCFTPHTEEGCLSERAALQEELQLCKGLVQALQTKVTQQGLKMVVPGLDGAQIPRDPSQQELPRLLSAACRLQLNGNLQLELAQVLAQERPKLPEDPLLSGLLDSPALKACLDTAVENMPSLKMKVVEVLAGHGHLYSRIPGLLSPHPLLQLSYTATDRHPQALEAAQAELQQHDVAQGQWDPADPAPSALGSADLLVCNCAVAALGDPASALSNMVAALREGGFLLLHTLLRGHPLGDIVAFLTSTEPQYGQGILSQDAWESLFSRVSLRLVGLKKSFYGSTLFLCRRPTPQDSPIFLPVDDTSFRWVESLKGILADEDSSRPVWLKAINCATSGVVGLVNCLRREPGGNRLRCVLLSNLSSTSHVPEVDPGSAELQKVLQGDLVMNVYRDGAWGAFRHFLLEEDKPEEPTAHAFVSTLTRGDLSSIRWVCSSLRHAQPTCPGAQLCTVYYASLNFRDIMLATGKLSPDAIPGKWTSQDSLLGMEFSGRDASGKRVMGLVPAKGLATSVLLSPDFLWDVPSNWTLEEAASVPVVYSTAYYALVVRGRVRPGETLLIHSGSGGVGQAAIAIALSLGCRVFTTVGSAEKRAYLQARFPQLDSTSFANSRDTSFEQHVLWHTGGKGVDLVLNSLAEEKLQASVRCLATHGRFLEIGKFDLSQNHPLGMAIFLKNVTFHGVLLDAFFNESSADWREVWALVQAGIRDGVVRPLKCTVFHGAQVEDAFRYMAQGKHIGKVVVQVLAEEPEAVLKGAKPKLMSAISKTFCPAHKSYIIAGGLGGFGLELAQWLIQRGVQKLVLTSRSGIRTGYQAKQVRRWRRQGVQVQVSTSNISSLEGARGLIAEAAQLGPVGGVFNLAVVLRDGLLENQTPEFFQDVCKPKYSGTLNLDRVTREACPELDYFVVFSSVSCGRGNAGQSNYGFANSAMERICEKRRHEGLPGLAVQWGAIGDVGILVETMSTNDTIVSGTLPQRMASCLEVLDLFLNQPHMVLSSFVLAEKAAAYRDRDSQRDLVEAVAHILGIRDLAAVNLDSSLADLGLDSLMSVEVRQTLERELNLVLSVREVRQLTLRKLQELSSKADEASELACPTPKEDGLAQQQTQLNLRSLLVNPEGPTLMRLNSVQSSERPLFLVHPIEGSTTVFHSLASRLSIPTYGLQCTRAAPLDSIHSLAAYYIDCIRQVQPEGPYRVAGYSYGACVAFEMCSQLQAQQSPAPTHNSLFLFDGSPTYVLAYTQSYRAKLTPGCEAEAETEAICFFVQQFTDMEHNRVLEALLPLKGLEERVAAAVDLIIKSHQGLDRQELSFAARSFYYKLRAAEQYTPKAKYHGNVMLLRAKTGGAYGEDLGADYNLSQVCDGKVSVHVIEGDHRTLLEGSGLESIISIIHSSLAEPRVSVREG

Prothrombin = Prothrombin (Homo sapiens, UniProt P00734); assay: Thrombin 1536 HTS Dose Response Confirmation. [Related pubchem assays: 1046 (Thrombin 1536 HTS; hits were confirmed in this assay)]; type: functional
Fatty acid synthase [5] = molecular target: T2, Fatty acid synthase; assay: inhibition of human FAS-TE enzyme activity – biochemical, kinetic fluorescence intensity, dose response (AID 624326); type: functional;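 further: rate of fluorescence rise from hydrolysis of a fluorogenic O-methyl fluorescein ester substrate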
[6] = molecular target: T3, Corticotropin-releasing factor receptor 2/Corticotropin-releasing factor-binding protein (Homo sapiens, UniProt P24387+Q13324); assay: activators of CRF receptor 2 with binding protein – uHTS hits, confirmation (AID 602473); type: functional; conditions: read-out: EC50_Mean
T3 sequence (Q13324 whole entry): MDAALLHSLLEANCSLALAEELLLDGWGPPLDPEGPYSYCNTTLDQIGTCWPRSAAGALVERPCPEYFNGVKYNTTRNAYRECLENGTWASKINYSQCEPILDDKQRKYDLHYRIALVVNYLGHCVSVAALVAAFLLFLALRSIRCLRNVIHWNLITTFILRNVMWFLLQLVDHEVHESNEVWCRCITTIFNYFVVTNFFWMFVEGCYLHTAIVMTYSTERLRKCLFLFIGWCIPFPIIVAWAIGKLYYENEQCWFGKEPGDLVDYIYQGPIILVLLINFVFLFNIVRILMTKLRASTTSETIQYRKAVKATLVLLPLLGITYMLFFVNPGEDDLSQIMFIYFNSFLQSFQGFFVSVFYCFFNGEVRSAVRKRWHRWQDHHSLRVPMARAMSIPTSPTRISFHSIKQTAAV
T3 sequence (P24387 whole entry): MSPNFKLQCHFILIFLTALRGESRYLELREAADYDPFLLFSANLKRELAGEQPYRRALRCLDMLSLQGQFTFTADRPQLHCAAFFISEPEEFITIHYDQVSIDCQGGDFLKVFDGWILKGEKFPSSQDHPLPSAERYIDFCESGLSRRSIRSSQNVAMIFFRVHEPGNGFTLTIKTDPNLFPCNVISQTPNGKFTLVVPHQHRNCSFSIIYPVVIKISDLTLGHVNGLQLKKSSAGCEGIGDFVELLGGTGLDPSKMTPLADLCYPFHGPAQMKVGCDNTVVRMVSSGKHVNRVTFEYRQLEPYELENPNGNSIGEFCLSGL

Structure (SMILES): Cc1cc(CN(C)C(=O)c2ccc3nc(Cc4ccccc4F)oc3c2)on1
AC50 (HeLa): 68.2 µM (active)

Structure (SMILES): C(=NC1CCCCC1)=NC1CCCCC1 [DICYCLOHEXYLCARBODIIMIDE]
AC50 [1]: 70.8 µM (inconclusive)

Structure (SMILES): Cc1ccc2nc(O)c(-c3nc4ccccn4c3NCc3ccco3)cc2c1
IC50 (Estrogen receptor): 25.7 µM (active)
EC50 [2]: 18.7 µM (active)
EC50 [3]: 28.4 µM (active)

IC50 (Fatty acid synthase [4]): 1.84 µM (active)
IC50 (Prothrombin): > 50 µM (not active)
IC50 (Fatty acid synthase [5]): 1.44 µM (active)
Structure (SMILES): CCOc1ccc(C2CC(=O)N(Nc3ccc([N+](=O)[O-])cc3[N+](=O)[O-])C2=O)cc1 (stereo not given)

IC50 (Prothrombin): 1.06 µM (active)
EC50 [6]: > 53 µM (inactive)
Structure (SMILES): Cn1c(CN2CCCCC2)nc2cc(NS(=O)(=O)c3ccc(Cl)cc3)ccc21

Structure (SMILES): CC(=O)Nc1c(-c2ccc3ccccc3c2)nc2ccccn12
AC50 (HeLa): 213 µM (active)

IC50 (Prothrombin): 0.321 µM (active)
Structure (SMILES): Cn1c(=O)c2cc(NC(=O)c3ccccc3Cl)c(=O)oc2n(C)c1=O

Structure (SMILES): CC(=O)c1ccc(NC(=O)c2noc3c2CCCCC3)cc1
AC50 (HeLa): > 350 µM (inactive)

IC50 (Prothrombin): > 50 µM (not active)
Structure (SMILES): COCCNC(=O)Cn1nc(C(F)(F)F)cc1C

Structure (SMILES): CCOC(=O)C1OC1c1ccccc1 (stereo not given)
AC50 [1]: 35.5 µM (inconclusive)
